According to US20120258990A1 (priority 2009, published 2012):

Test system: Plasmopara viticola
Test: Plasmopara viticola/Grape/Curative (Grape Downy Mildew)
Format: in vivo
Conditions: 200 ppm; grape seedlings cv. Gutedel, inoculated one day before application, assessed 4-6 days after application
Protocol: Plasmopara viticola/Grape/Curative (Grape Downy Mildew)
5-week-old grape seedlings cv. Gutedel are inoculated by spraying a sporangia suspension on their lower leaf surface one day before application. The inoculated grape plants are sprayed in a spray chamber with the formulated test compound diluted in water. The inoculated test plants are incubated at 22° C. and 100% rh in a greenhouse and the percentage leaf area covered by disease is assessed when an appropriate level of disease appears on untreated check plants (4-6 days after application).

In the case of `Cc1cc(C(F)(F)F)nn1CC(=O)N(C)CCCc1nc(C(=O)N(C)[C@@H]2CCCc3ccccc32)cs1` [Compound I.d.55, 2-(3-{methyl-[2-(5-methyl-3-trifluoromethyl-pyrazol-1-yl)-acetyl]-amino}-propyl)-thiazole-4-carboxylic acid methyl-(R)-1,2,3,4-tetrahydro-naphthalen-1-yl-amide], the disease control is reported as “at least 80%”.
